# According to patent EP2799074A1, “Iron bis-glycinate chelate for use in the oral treatment of anemia in patients with celiac disease” (Laboratori Baldacci S.P.A., priority 2009, dated 2011):
# Values joined by “and” are separate entries in the source; they are usually repeats but may differ in a detail not shown here. Identical values can stand only once. Like-named read-outs stand apart in the source and are kept apart here.
# Assays:
# [1] = tested on: celiac subjects, with sideropenic anemia; test: Efficiency comparison between oral iron bis-glycinate chelate (effervescent tablet of example 1) and conventional treatment in celiac patients; haemochromocytometric test; assay type: in vivo, human; details: for Hb values / Serum iron values / Values of Ferritin: one patient per line; for Serum iron values / Values of Ferritin: after initial therapy (Fe sulphate p.o. and/or sodium ferric gluconate i.v.)
# Excerpt: 12 celiac subjects, with sideropenic anemia diagnosed according to the hemoglobin (Hb), ferritin and iron (serum iron) values obtained from the haemochromocytometric test were included in this experiment.
# Celiac disease was diagnosed according to the clinical manifestations and histology reports regarding the intestinal mucosa.
# These patients were then subjected to a therapy using the iron bis-glycinate chelate according to the invention, formulated in the effervescent tablet of example 1.
# The hemoglobin (Hb), (Table 1), ferritin (Table 2) and serum iron (Table 3) values taken from each treated patient, both after the conventional therapy (oral and/or intravenous) and after the oral administration according to the present invention (effervescent tablet) were considered for the evaluation.
# A therapy cycle corresponds to the treatment for 20 days with two effervescent tablets per day containing about 14 mg of iron ion per tablet and then, an effervescent tablet per day containing 14 mg of iron ion, for further 40 days.
# The subsequent maintenance corresponds to the treatment for 20 days with two effervescent tablets per day containing about 14 mg of iron ion per tablet, every 3 months for about one year.
# The hemoglobin, ferritin and serum iron blood values were determined after the first treatment cycle and the treatment was continued with repeated cycles according to the previously indicated methods.
# [2] = cited from earlier work
# [3] = with respect to mineral salts, such as ferrous sulphate; literature data; cited from earlier work
# celiac patients [4] = test: Clinical records of celiac patients treated with conventional iron salts p.o. and i.v. (Examples 6-11)
# Method: (§1) All patients were initially treated with ferrous sulphate orally (1 tablet of ferrous sulphate, corresponding to 105 mg of iron ion) for 40 days and/or with sodium ferric gluconate by intravenous administration for a variable period of time according to the seriousness of the anemic status.
# (§2) All patients were diagnosed with celiac disease through bioptic sampling and with serological tests. During the conventional therapy, the diet of said patients was controlled and corrected with gluten-free foods.
# celiac patients [5] = details: human, in vivo
# Method: as §1, §2
# [6] = Patient I, ferrous sulphate oral, Final values, 40 days
# [7] = Patient I, ferrous sulphate oral, Initial values, 40 days
# [8] = Patient II, ferrous sulphate oral, Final values, 8/10 days
# [9] = Patient II, ferrous sulphate oral, Initial values, 8/10 days
# [10] = Patient III, ferrous sulphate oral, Final values, 40 days
# [11] = Patient III, ferrous sulphate oral, Initial values, 40 days
# [12] = Patient V, ferrous sulphate oral, Final values, 40 days
# [13] = Patient V, ferrous sulphate oral, Initial values, 40 days
# [14] = Patient I, iron polymaltosate oral, Final values, 20 days
# [15] = Patient I, iron polymaltosate oral, Initial values, 20 days
# [16] = Patient I, ferric iron i.v., Final values, 20 days
# [17] = Patient I, ferric iron i.v., Initial values, 20 days
# [18] = Patient II, ferric iron i.v., Final values, few days
# [19] = Patient II, ferric iron i.v., Initial values, few days
# [20] = Patient IV, ferric iron i.v., Final values, 20 days
# [21] = Patient IV, ferric iron i.v., Initial values, 20 days
# [22] = Patient VI, iron i.v., Final values, 20 days
# [23] = Patient VI, iron i.v., Initial values, 20 days
molecule,measurement,setting,value
"NCC(=O)[O-].NCC(=O)[O-].[Fe+2] [Iron bis-glycinate chelate, iron bis-glycinate chelate]","hemoglobin, ferritin and serum iron value","[1]; after I therapy cycle, celiac patients",considerably increases
same,Hb values,"[1]; after efferv. tab therapy 1st cycle: two effervescent tablets per day for 20 days, then one per day for 40 days",12.5 g/100 ml and 12.0 g/100 ml (2×) and 13.1 g/100 ml and 11.7 g/100 ml and 11.8 g/100 ml and 12.8 g/100 ml and 12.3 g/100 ml and 12.7 g/100 ml and 11.9 g/100 ml and 12.1 g/100 ml and 10.0 g/100 ml
same,Hb values,[1]; after maintenance efferv. tab.: two tablets per day for 20 days every 3 months for about one year,13.6 g/100 ml and 12.9 g/100 ml (2×) and 14.3 g/100 ml and 13.4 g/100 ml (2×) and 13.2 g/100 ml and 12.3 g/100 ml and 14.0 g/100 ml and 13.1 g/100 ml and 12.7 g/100 ml and 12.1 g/100 ml
same,adverse effects,[1]; oral treatment of 12 celiac patients with the effervescent tablet of example 1,did not reveal any adverse effects worth mentioning
same,hydrolysis,[2]; different pH values of the gastrointestinal section,does not undergo hydrolysis
same,separation into iron ion,[2]; pH interval comprised between 3 and 10,not separated into iron ion
same,bioavailability,[3],greater bioavailability
O=S(=O)([O-])[O-].[Fe+2] [ferrous sulphate],Serum iron values,[1],34 µg/dL and 16 µg/dL
same,Values of Ferritin,[1],23 ng/mL and <5 ng/mL
same,tolerability / adverse events of the treatment,celiac patients [4]; Patient I - Female,intestinal intolerance
same,Ferritin,celiac patients [4]; [6],38
same,Serum iron,celiac patients [4]; [6],48
same,Hb,"celiac patients [4]; Patient I, ferrous sulphate oral, Final values, duration 40 days",11.1
same,Ferritin,celiac patients [4]; [7],32
same,Serum iron,celiac patients [4]; [7],41
same,Hb,"celiac patients [4]; Patient I, ferrous sulphate oral, Initial values, duration 40 days",10.2
same,Ferritin,celiac patients [4]; [8],45
same,Hb,celiac patients [4]; [8],12.3
same,Serum iron,celiac patients [4]; [8],68
same,Ferritin,celiac patients [4]; [9],41
same,Hb,celiac patients [4]; [9],11.6
same,Serum iron,celiac patients [4]; [9],55
same,Ferritin,celiac patients [4]; [10],27
same,Hb,celiac patients [4]; [10],10
same,Serum iron,celiac patients [4]; [10],38
same,Ferritin,celiac patients [4]; [11],19
same,Hb,celiac patients [4]; [11],9.1
same,Serum iron,celiac patients [4]; [11],32
same,Hb,"celiac patients [4]; Patient V, ferrous sulphate oral, after several therapy cycles, Initial values, 40 days",8.4
same,Ferritin,celiac patients [4]; [12],21
same,Hb,celiac patients [4]; [12],9.7
same,Serum iron,celiac patients [4]; [12],46
same,Ferritin,celiac patients [4]; [13],<5
same,Serum iron,celiac patients [4]; [13],22
iron polymaltosate,tolerability / adverse events of the treatment,celiac patients [5],well tolerated
same,Ferritin,celiac patients [4]; [14],25
same,Hb,celiac patients [4]; [14],10.8
same,Serum iron,celiac patients [4]; [14],43
same,Ferritin,celiac patients [4]; [15],29
same,Hb,celiac patients [4]; [15],10.6
same,Serum iron,celiac patients [4]; [15],38
sodium ferric gluconate,Serum iron values,[1],30 µg/dL
same,Values of Ferritin,[1],22 ng/mL
same,tolerability / adverse events of the treatment,celiac patients [5]; iv,skin rush and asthmatic crisis
same,Ferritin,celiac patients [4]; [16],30
same,Hb,celiac patients [4]; [16],9.8
same,Serum iron,celiac patients [4]; [16],48
same,Ferritin,celiac patients [4]; [17],<5
same,Serum iron,celiac patients [4]; [17],19
same,Hb,"celiac patients [4]; Patient I, ferric iron i.v., Initial values, 20 days, 1 vial/day for 10 days, then 2 vials/day",7.7
same,Ferritin,celiac patients [4]; [18],33
same,Serum iron,celiac patients [4]; [18],49
same,Hb,"celiac patients [4]; Patient II, ferric iron i.v., Final values, few days, cycle not completed",10.8
same,Ferritin,celiac patients [4]; [19],31
same,Serum iron,celiac patients [4]; [19],40
same,Hb,"celiac patients [4]; Patient II, ferric iron i.v., Initial values, few days, cycle not completed",10.4
same,Ferritin,celiac patients [4]; [20],42
same,Hb,celiac patients [4]; [20],10.6
same,Serum iron,celiac patients [4]; [20],54
same,Ferritin,celiac patients [4]; [21],21
same,Serum iron,celiac patients [4]; [21],39
same,Hb,"celiac patients [4]; Patient IV, ferric iron i.v., Initial values, 20 days, 1 vial/day for 10 days, then 2 vials/day",9.7
same,values of Hb,"celiac patients [4]; Patient IV, iron i.v., cycles every 3/4 months",around 11 gr/dl
same,Ferritin,celiac patients [4]; [22],81
same,Hb,celiac patients [4]; [22],12.6
same,Serum iron,celiac patients [4]; [22],68
same,Ferritin,celiac patients [4]; [23],35
same,Hb,celiac patients [4]; [23],10.2
same,Serum iron,celiac patients [4]; [23],41
